{"source": "patent US20260242478A1", "about": "“ANTIBODIES FOR TARGETING PSMA AND CD28 AND USES THEREOF” (Janux Therapeutics, Inc., priority 2023, published 2026)", "note": "Where no end group is shown, it is not given here."}
{"target": "anti-CD28 Fab (SEQ ID NOs: 696, 697)", "assay": "anti-CD28 Fab binding to peptides, ELISA", "settings": "Table 25; anti-CD28 Fab", "units": {"EC50": "nM"}}
{"substance": "TCAAGAAWPWPQCL [Peptide-140]", "EC50": 2.6}
{"substance": "TCAAGATWSWPACF [Peptide-142]", "EC50": 4.5}
{"substance": "SCSAGAHYPWPQCF [Peptide-148]", "EC50": 19}
{"substance": "TCSAGAHYPWPICL [Peptide-150]", "EC50": 10.6}
{"substance": "TCAAGAHYPWPACL [Peptide-154]", "EC50": 4.2}
{"substance": "TCAAGATYLWPTCL [Peptide-153]", "EC50": 20.5}
{"substance": "TCSAGATWAWPLCF [Peptide-152]", "EC50": 15.6}
{"substance": "TCSAGATYEWPRCL [Peptide-149]", "EC50": 12.8}
{"substance": "TCAAGAAWGWPLCF [Peptide-143]", "EC50": 5.6}
{"substance": "TCSAGAAYPWPLCL [Peptide-145]", "EC50": 4.4}
{"substance": "TCSAGATYTWPKCF [Peptide-141]", "EC50": 15.7}
{"substance": "LCAAGASWPWPVCL [Peptide-138]", "EC50": 13.1}
{"substance": "TCSAGAAYSWPACF [Peptide-146]", "EC50": 24.3}
{"substance": "SCSAGAAYYWPWCL [Peptide-151]", "EC50": 112}
{"substance": "TCSAGATWPWPICL [Peptide-137]", "EC50": 2.1}
{"substance": "TCSAGASYPWPLCL [Peptide-139]", "EC50": 5.3}
{"substance": "LCAAGATYPWPLCL [Peptide-144]", "EC50": 5.6}
{"substance": "LCAAGATYPWPTCL [Peptide-147]", "EC50": 25.8}
{"target": "anti-CD28 Fab (SEQ ID NOs: 696, 697)", "assay": "anti-CD28 Fab binding to peptides, ELISA", "settings": "Table 26; anti-CD28 Fab", "units": {"EC50": "nM"}}
{"substance": "YCEGHSPEYILKCL [Peptide-117]", "EC50": 11}
{"substance": "YCEGHLPEYLGKCL [Peptide-125]", "EC50": 12.1}
{"substance": "YCEGHAPEYIGKCL [Peptide-136]", "EC50": 44.9}
{"substance": "YCEGHRPEYILKCL [Peptide-118]", "EC50": 65.8}
{"substance": "YCEGHEGIYFWKCL [Peptide-119]", "EC50": 128}
{"substance": "YCEGHSSEYIQKCL [Peptide-129]", "EC50": 30.5}
{"substance": "YCEGHAPEYIWKCL [Peptide-123]", "EC50": 8.1}
{"substance": "YCWSHSPPFIKKCY [Peptide-131]", "EC50": "> 1000"}
{"substance": "YCEGHSQENIWKCL [Peptide-124]", "EC50": 28.1}
{"substance": "HCSGHHWLQVWKCF [Peptide-130]", "EC50": "> 1000"}
{"substance": "YCEGHAPEYIRKCL [Peptide-122]", "EC50": 7.8}
{"substance": "YCEGHLPEYLEKCV [Peptide-133]", "EC50": 32.5}
{"substance": "YCEGHSQEYLWKCL [Peptide-128]", "EC50": 59.4}
{"system": "anti-CD28 scFv (SEQ ID NO: 9)", "assay": "Kinetic binding of anti-CD28 scFv to peptides, bio-layer interferometry (Octet RED96)", "settings": "Table 34; CD28 scFv titrated 100-12.5 nM, 200 nM peptide loaded", "description": "(§1) Briefly, streptavidin biosensors were loaded with biotinylated peptides and baselined in buffer. […] After a short association period, sensors were transferred into buffer and the dissociation of bound anti-CD28 scFv was measured. The timing and steps of the experiment are shown in the accompanying table. Association and dissociation signals were recorded in real time and analyzed using a 1:1 binding model within the instrument software. Analysis using a 1:1 binding model enabled the calculation of the on and off rate constants as well as affinity, KD.\nas §1, with “KD. FIGS. 70A-70F illustrate kinetic binding of anti-CD28 scFv binding to peptides as measured by Octet. FIGS. 70G-70U illustrate kinetic binding of peptides to the anti-CD28 scFv as measured by Octet.” for “KD.”", "units": {"kdis": "s⁻¹", "kon": "M⁻¹ s⁻¹"}}
{"substance": "GYCHYWGDMVMWCG [Peptide-12]", "kdis": 0.00167, "kon": 98700}
{"substance": "MDWCPRERWVDCFF [Peptide-9]", "kdis": 0.0123, "kon": 32500}
{"target": "anti-CD28 scFv (SEQ ID NO: 9)", "assay": "Kinetic binding of anti-CD28 scFv to peptides, bio-layer interferometry (Octet RED96)", "settings": "Table 36; anti-CD28 scFv titrated 100-12.5 nM, 200 nM peptide loaded", "description": "as §1\nas §1, with “KD. FIGS. 70A-70F illustrate kinetic binding of anti-CD28 scFv binding to peptides as measured by Octet. FIGS. 70G-70U illustrate kinetic binding of peptides to the anti-CD28 scFv as measured by Octet.” for “KD.”", "units": {"Kd": "nM", "kdis": "s⁻¹", "kon": "M⁻¹ s⁻¹"}}
{"substance": "MDWCPRDLWSECFF [Peptide-40]", "Kd": 79.9, "kdis": 0.0031, "kon": 38800}
{"substance": "MDWCPRDMWDECFA [Peptide-42]", "Kd": 152, "kdis": 0.00433, "kon": 28400}
{"substance": "MDWCPRDMWSVCFS [Peptide-44]", "Kd": 374, "kdis": 0.00812, "kon": 21700}
{"substance": "MDWCPVHLWSVCFA [Peptide-50]", "Kd": 48, "kdis": 0.00443, "kon": 92300}
{"substance": "MDWCPRDMWSECFA [Peptide-43]", "Kd": 192, "kdis": 0.0032, "kon": 16700}
{"substance": "MDWCPLHMWHECFS [Peptide-35]", "Kd": 127, "kdis": 0.00497, "kon": 39000}
{"substance": "MDWCPIDLWNECFF [Peptide-31]", "Kd": 71.8, "kdis": 0.00369, "kon": 51400}
{"substance": "MNWCPKDIWYLCFN [Peptide-34]", "Kd": 88.8, "kdis": 0.00684, "kon": 77000}
{"substance": "MDWCPRHMWNYCFA [Peptide-46]", "Kd": 35.2, "kdis": 0.00218, "kon": 61900}
{"substance": "MDWCPRDLWDLCFA [Peptide-37]", "Kd": 97.8, "kdis": 0.00351, "kon": 35900}
{"substance": "MDWCPRDLWHLCFS [Peptide-39]", "Kd": 51.9, "kdis": 0.00265, "kon": 51100}
{"substance": "MDWCPRYLWHVCFA [Peptide-48]", "Kd": 21.1, "kdis": 0.00187, "kon": 88900}
{"substance": "MDWCPIHLWHVCFN [Peptide-32]", "Kd": 49.9, "kdis": 0.00295, "kon": 59100}
{"substance": "MDWCPRDLWHECFA [Peptide-38]", "Kd": 92.3, "kdis": 0.00277, "kon": 30000}
{"substance": "MDWCPRFMWDECFN [Peptide-45]", "Kd": 134, "kdis": 0.00364, "kon": 27100}
{"substance": "MDWCPRSLWHECFA [Peptide-47]", "Kd": 51.8, "kdis": 0.00201, "kon": 38900}
{"substance": "MDWCPLYLWNECFN [Peptide-36]", "Kd": 68.7, "kdis": 0.00252, "kon": 36700}
{"substance": "MHWCPVDLWYLCYN [Peptide-49]", "Kd": 21.1, "kdis": 0.00186, "kon": 88200}
{"substance": "MDWCPIYLWSECFN [Peptide-33]", "Kd": 52.8, "kdis": 0.00153, "kon": 29000}
{"substance": "MDWCPRERWVDCFF [Peptide-9]", "Kd": 278, "kdis": 0.0115, "kon": 41500}
{"system": "PSMA Fab", "assay": "Phage binding ELISA, PSMA Fab, with or without PSMA antigen (peptide-179 and peptide-180 libraries)", "settings": "peptide-180 library clonal phage; background (no Fab)", "description": "(§2) Once the phage optimization libraries were completed, phage libraries were bio-panned using PSMA Fab loaded beads. Multiple rounds of panning were performed where bacteriophage was allowed to bind to PSMA Fab loaded beads. washed. eluted, and amplified. After panning, phage infected bacteria were plated out and colonies picked into 96 well blocks. Clonal phage was then amplified and separated from bacterial cells via centrifugation. Phage containing supemnatants were tested in binding ELISAs against PSMA Fab coated plates in the presence or absence of saturating concentrations of PSMA antigen. Phage able to bind PSMA Fab were selected for sequence analysis if the binding signal was reduced in the presence of PSMA.\nClonal phage were harvested as crude supernatants and screened via standard ELISAs. Briefly, biotinylated PSMA Fab was captured on neutravidin coated plates. Prior to the addition of clonal phage. wells were incubated with blocking buffer and PSMA antigen or blocking buffer alone. Without washing or aspirating, clonal phage supernatants were then added to the wells and incubated for a short time. Wells were then washed followed by detection of bound phage using a horse radish conjugated anti-M13 antibody. Clonal phage of interest were then sent for sequence analysis.\nas §2, with “beads, washed,” for “beads. washed.”, “supernatants” for “supemnatants”"}
{"substance": "Phage-2852 (VMPLCKPAWMCGGF; not fully specified; cysteine pairing not given here)", "Phage binding ELISA Background signal": 0.0869}
{"substance": "Phage-2790 (VMKWCTPSWMCAEA)", "Phage binding ELISA Background signal": 0.067}
{"substance": "Phage-2864 (IETWCVPRWMCEGF)", "Phage binding ELISA Background signal": 0.0693}
{"substance": "Phage-2849 (VFPICKPSWMCVGM; not fully specified; cysteine pairing not given here)", "Phage binding ELISA Background signal": 0.0918}
{"substance": "Phage-2806 (GATWCTPTWMCTGF)", "Phage binding ELISA Background signal": 0.0609}
{"substance": "Phage-2809 (VTKLCIPEWMCVIQ)", "Phage binding ELISA Background signal": 0.0543}
{"substance": "Phage-2797 (ERIWCTPKWMCETF)", "Phage binding ELISA Background signal": 0.0696}
{"substance": "Phage-2847 (WMPRCVPEWMCAGF; not fully specified; cysteine pairing not given here)", "Phage binding ELISA Background signal": 0.1667}
{"substance": "Phage-2803 (VKHVCMPEWMCYWS)", "Phage binding ELISA Background signal": 0.0652}
{"substance": "Phage-2840 (EPQWCIPKWMCDHM; not fully specified; cysteine pairing not given here)", "Phage binding ELISA Background signal": 0.0612}
{"substance": "Phage-2818 (SVHMCKPPWMCQSM)", "Phage binding ELISA Background signal": 0.0587}
{"substance": "Phage-2837 (VDRWCTPPWMCDWQ; cysteine pairing not given here; also: large carrier left off)", "Phage binding ELISA Background signal": 0.0583}
{"substance": "Phage-2868 (EPIRCVPQWMCVGF)", "Phage binding ELISA Background signal": 0.0882}
{"substance": "Phage-2862 (TGAYCVPQWMCSGF; not fully specified; cysteine pairing not given here)", "Phage binding ELISA Background signal": 0.0638}
{"substance": "Phage-2836 (DWKLCKPTWMCESL; not fully specified; cysteine pairing not given here)", "Phage binding ELISA Background signal": 0.0582}
{"substance": "Phage-2860 (EWILCKPAWMCDGL; not fully specified; cysteine pairing not given here)", "Phage binding ELISA Background signal": 0.051}
{"substance": "Phage-2811 (VPKWCTPSWMCEFT)", "Phage binding ELISA Background signal": 0.0593}
{"substance": "Phage-2850 (VNIRCEPAWMCMGF; not fully specified; cysteine pairing not given here)", "Phage binding ELISA Background signal": 0.0727}
{"substance": "Phage-2795 (FEKWCTPQWMCNSM)", "Phage binding ELISA Background signal": 0.0569}
{"substance": "Phage-2791 (WEKWCTPSWMCSGI)", "Phage binding ELISA Background signal": 0.0564}
{"substance": "Phage-2815 (IDKWCVPAWMCSPA)", "Phage binding ELISA Background signal": 0.0608}
{"substance": "Phage-2835 (VAKLCTPAWMCSAM; not fully specified; cysteine pairing not given here)", "Phage binding ELISA Background signal": 0.0643}
{"substance": "Phage-2792 (TQHWCTPIWMCEGL)", "Phage binding ELISA Background signal": 0.0865}
{"substance": "Phage-2804 (EGKWCTPTWMCQGF)", "Phage binding ELISA Background signal": 0.0669}
{"substance": "Phage-2802 (TPKWCTPAWMCVVS)", "Phage binding ELISA Background signal": 0.0829}
